Results reported in patent US8927717B1, “Thiochromeno[2,3-c]quinolin-12-one derivatives, preparation method and application thereof” (National Defense Medical Center, priority 2014, dated 2015).

Legend:
CAKI-1 = format: cell-based; settings: Renal cancer; 10^−5 molar; 48 hours; SRB
CCRF-CEM = format: cell-based; settings: Leukemia; 10^−5 molar; 48 hours; SRB
M14 = format: cell-based; settings: Melanoma; 10^−5 molar; 48 hours; SRB
MCF7 = format: cell-based; settings: Breast cancer; 10^−5 molar; 48 hours; SRB
OVCAR-5 = format: cell-based; settings: Ovarian cancer; 10^−5 molar; 48 hours; SRB
SNB-19 = format: cell-based; settings: CNS cancer; 10^−5 molar; 48 hours; SRB
HCT-116 = format: cell-based; settings: Colon cancer; 10^−5 molar; 48 hours; SRB
OVCAR-3 = format: cell-based; settings: Ovarian cancer; 10^−5 molar; 48 hours; SRB
NCI-H23 = format: cell-based; settings: Non-small cell lung cancer; 10^−5 molar; 48 hours; SRB
SK-MEL-5 = format: cell-based; settings: Melanoma; 10^−5 molar; 48 hours; SRB
HOP-62 = format: cell-based; settings: Non-small cell lung cancer; 10^−5 molar; 48 hours; SRB
SN12C = format: cell-based; settings: Renal cancer; 10^−5 molar; 48 hours; SRB
K-562 = format: cell-based; settings: Leukemia; 10^−5 molar; 48 hours; SRB
HS 578T = format: cell-based; settings: Breast cancer; 10^−5 molar; 48 hours; SRB
HCT-15 = format: cell-based; settings: Colon cancer; 10^−5 molar; 48 hours; SRB
SNB-75 = format: cell-based; settings: CNS cancer; 10^−5 molar; 48 hours; SRB
KM12 = assay: cells; format: cell-based; settings: Colon cancer; 10^−5 molar; 48 hours; SRB
BT-549 = format: cell-based; settings: Breast cancer; 10^−5 molar; 48 hours; SRB
SR = format: cell-based; settings: Leukemia; 10^−5 molar; 48 hours; SRB
OVCAR-4 = format: cell-based; settings: Ovarian cancer; 10^−5 molar; 48 hours; SRB
A498 = format: cell-based; settings: Renal cancer; 10^−5 molar; 48 hours; SRB
60 cancer cell lines = assay: NCI 60-cell screen, SRB, whole panel (mean, delta, range); format: cell-based; settings: 10^−5 molar, 48 hours, SRB; for Growth percent, Delta: delta over the cell panel; for Growth percent, Mean: mean over the cell panel; for Growth percent, Range: range over the cell panel
T-47D = format: cell-based; settings: Breast cancer; 10^−5 molar; 48 hours; SRB
IGROV1 = format: cell-based; settings: Ovarian cancer; 10^−5 molar; 48 hours; SRB
MDA-MB-231/ATCC = format: cell-based; settings: Breast cancer; 10^−5 molar; 48 hours; SRB
SF-539 = format: cell-based; settings: CNS cancer; 10^−5 molar; 48 hours; SRB
SK-MEL-28 = format: cell-based; settings: Melanoma; 10^−5 molar; 48 hours; SRB
HCC-2998 = format: cell-based; settings: Colon cancer; 10^−5 molar; 48 hours; SRB
COLO 205 = format: cell-based; settings: Colon cancer; 10^−5 molar; 48 hours; SRB
NCI-H226 = format: cell-based; settings: Non-small cell lung cancer; 10^−5 molar; 48 hours; SRB
RXF 393 = format: cell-based; settings: Renal cancer; 10^−5 molar; 48 hours; SRB
SW-620 = format: cell-based; settings: Colon cancer; 10^−5 molar; 48 hours; SRB
UACC-257 = format: cell-based; settings: Melanoma; 10^−5 molar; 48 hours; SRB
A549/ATCC = format: cell-based; settings: Non-small cell lung cancer; 10^−5 molar; 48 hours; SRB
NCI-H460 = format: cell-based; settings: Non-small cell lung cancer; 10^−5 molar; 48 hours; SRB
MDA-MB-486 = format: cell-based; settings: Breast cancer; 10^−5 molar; 48 hours; SRB
U251 = format: cell-based; settings: CNS cancer; 10^−5 molar; 48 hours; SRB
LOX IMVI = format: cell-based; settings: Melanoma; 10^−5 molar; 48 hours; SRB
NCI-H522 = format: cell-based; settings: Non-small cell lung cancer; 10^−5 molar; 48 hours; SRB
MALME-3M = format: cell-based; settings: Melanoma; 10^−5 molar; 48 hours; SRB
SK-OV-3 = format: cell-based; settings: Ovarian cancer; 10^−5 molar; 48 hours; SRB
MOLT-4 = format: cell-based; settings: Leukemia; 10^−5 molar; 48 hours; SRB
786-0 = format: cell-based; settings: Renal cancer; 10^−5 molar; 48 hours; SRB
SF-295 = format: cell-based; settings: CNS cancer; 10^−5 molar; 48 hours; SRB
PC-3 = format: cell-based; settings: Prostate cancer; 10^−5 molar; 48 hours; SRB
OVCAR-8 = format: cell-based; settings: Ovarian cancer; 10^−5 molar; 48 hours; SRB
SF-268 = format: cell-based; settings: CNS cancer; 10^−5 molar; 48 hours; SRB
UO-31 = format: cell-based; settings: Renal cancer; 10^−5 molar; 48 hours; SRB
HT29 = format: cell-based; settings: Colon cancer; 10^−5 molar; 48 hours; SRB
TK-10 = format: cell-based; settings: Renal cancer; 10^−5 molar; 48 hours; SRB
UACC-62 = format: cell-based; settings: Melanoma; 10^−5 molar; 48 hours; SRB
MDA-MB-435 = format: cell-based; settings: Melanoma; 10^−5 molar; 48 hours; SRB
HL-60(TB) = format: cell-based; settings: Leukemia; 10^−5 molar; 48 hours; SRB
ACHN = format: cell-based; settings: Renal cancer; 10^−5 molar; 48 hours; SRB
RPMI-8226 = format: cell-based; settings: Leukemia; 10^−5 molar; 48 hours; SRB
DU-145 = format: cell-based; settings: Prostate cancer; 10^−5 molar; 48 hours; SRB
NCI/ADR-RES = format: cell-based; settings: Ovarian cancer; 10^−5 molar; 48 hours; SRB
SK-MEL-2 = format: cell-based; settings: Melanoma; 10^−5 molar; 48 hours; SRB
HOP-92 = format: cell-based; settings: Non-small cell lung cancer; 10^−5 molar; 48 hours; SRB

CCC(CO)Nc1nc2ccccc2c2c(=O)c3cc(Cl)ccc3sc12 (centres unmarked) [Compound N12, 10-Chloro-6-((1-hydroxybutan-2-yl)amino)-12H-thiochromeno[2,3-c]quinolin-12-one]
Growth percent CAKI-1 (CAKI-1): 59.29%
Growth percent CCRF-CEM (CCRF-CEM): 70.00%
Growth percent M14 (M14): 85.38%
Growth percent MCF7 (Table 2: MCF) (MCF7): 40.92%
Growth percent OVCAR-5 (OVCAR-5): 88.01%
Growth percent SNB-19 (SNB-19): 93.87%
Growth percent HCT-116 (HCT-116): 73.42%
Growth percent OVCAR-3 (OVCAR-3): 96.34%
Growth percent NCI-H23 (NCI-H23): 81.25%
Growth percent SK-MEL-5 (SK-MEL-5): 87.19%
Growth percent HOP-62 (HOP-62): 55.91%
Growth percent SN12C (SN12C): 81.98%
Growth percent K-562 (K-562): 46.86%
Growth percent HS 578T (HS 578T): 52.66%
Growth percent HCT-15 (HCT-15): 77.58%
Growth percent SNB-75 (SNB-75): 31.01%
Growth percent KM12 (KM12): 82.37%
Growth percent BT-549 (BT-549): 85.96%
Growth percent SR (SR): 62.38%
Growth percent OVCAR-4 (OVCAR-4): 83.23%
Growth percent A498 (A498): 74.62%
Growth percent, Delta (60 cancer cell lines): 42.51%
Growth percent, Mean (60 cancer cell lines): 73.52%
Growth percent, Range (60 cancer cell lines): 68.60%
Growth percent T-47D (T-47D): 46.94%
Growth percent IGROV1 (IGROV1): 66.54%
melting point: 203 to 204 °C
Growth percent MDA-MB-231/ATCC (MDA-MB-231/ATCC): 58.29%
Growth percent SF-539 (SF-539): 83.86%
Growth percent SK-MEL-28 (SK-MEL-28): 82.86%
Growth percent HCC-2998 (HCC-2998): 99.61%
Growth percent COLO 205 (COLO 205): 68.37%
Growth percent NCI-H226 (NCI-H226): 77.56%
Growth percent RXF 393 (RXF 393): 71.61%
Growth percent SW-620 (SW-620): 84.32%
Growth percent UACC-257 (UACC-257): 95.71%
Growth percent A549/ATCC (A549/ATCC): 69.86%
Growth percent NCI-H460 (NCI-H460): 83.78%
Growth percent MDA-MB-486 (MDA-MB-486): 80.85%
Growth percent U251 (U251): 74.49%
Growth percent LOX IMVI (LOX IMVI): 79.25%
Growth percent NCI-H522 (NCI-H522): 64.07%
Growth percent MALME-3M (MALME-3M): 58.66%
Growth percent SK-OV-3 (SK-OV-3): 58.93%
Growth percent MOLT-4 (MOLT-4): 61.79%
Growth percent 786-0 (786-0): 82.86%
Growth percent SF-295 (SF-295): 89.58%
Growth percent PC-3 (PC-3): 58.35%
Growth percent OVCAR-8 (OVCAR-8): 68.74%
Growth percent SF-268 (SF-268): 76.71%
Growth percent UO-31 (UO-31): 51.01%
Growth percent HT29 (HT29): 78.24%
Growth percent TK-10 (TK-10): 77.45%
Growth percent UACC-62 (UACC-62): 76.17%
Growth percent MDA-MB-435 (MDA-MB-435): 92.11%
Growth percent HL-60(TB) (HL-60(TB)): 96.29%
Growth percent ACHN (ACHN): 69.12%
Growth percent RPMI-8226 (RPMI-8226): 73.50%
Growth percent DU-145 (DU-145): 87.04%
Growth percent NCI/ADR-RES (NCI/ADR-RES): 77.02%

O=c1c2ccc(Cl)cc2sc2c(Cl)nc3ccccc3c12 [Compound 3, 6,9-Dichloro-12H-thiochromeno[2,3-c]quinolin-12-one]
Growth percent CAKI-1 (CAKI-1): 94.31%
Growth percent CCRF-CEM (CCRF-CEM): 93.12%
Growth percent M14 (M14): 106.18%
Growth percent MCF7 (Table 2: MCF) (MCF7): 82.58%
Growth percent OVCAR-5 (OVCAR-5): 100.07%
Growth percent SNB-19 (SNB-19): 107.89%
Growth percent HCT-116 (HCT-116): 102.27%
Growth percent OVCAR-3 (OVCAR-3): 111.27%
Growth percent NCI-H23 (NCI-H23): 85.12%
Growth percent SK-MEL-5 (SK-MEL-5): 97.42%
Growth percent HOP-62 (HOP-62): 82.02%
Growth percent SN12C (SN12C): 95.92%
Growth percent K-562 (K-562): 101.04%
Growth percent HS 578T (HS 578T): 95.14%
Growth percent HCT-15 (HCT-15): 102.28%
Growth percent SNB-75 (SNB-75): 77.88%
Growth percent KM12 (KM12): 111.27%
Growth percent BT-549 (BT-549): 110.01%
Growth percent SR (SR): 89.02%
Growth percent OVCAR-4 (OVCAR-4): 87.91%
Growth percent A498 (A498): 106.06%
Growth percent, Delta (60 cancer cell lines): 32.05%
Growth percent, Mean (60 cancer cell lines): 98.11%
Growth percent, Range (60 cancer cell lines): 57.22%
Growth percent T-47D (T-47D): 110.10%
Growth percent IGROV1 (IGROV1): 96.06%
melting point: 259 to 261 °C
Growth percent MDA-MB-231/ATCC (MDA-MB-231/ATCC): 84.28%
Growth percent SF-539 (SF-539): 89.02%
Growth percent SK-MEL-28 (SK-MEL-28): 101.80%
Growth percent SK-MEL-2 (SK-MEL-2): 95.54%
Growth percent HCC-2998 (HCC-2998): 123.28%
Growth percent COLO 205 (COLO 205): 112.15%
Growth percent NCI-H226 (NCI-H226): 83.41%
Growth percent RXF 393 (RXF 393): 102.55%
Growth percent SW-620 (SW-620): 99.06%
Growth percent UACC-257 (UACC-257): 104.47%
Growth percent A549/ATCC (A549/ATCC): 104.74%
Growth percent NCI-H460 (NCI-H460): 103.14%
Growth percent MDA-MB-486 (MDA-MB-486): 98.57%
Growth percent U251 (U251): 101.71%
Growth percent LOX IMVI (LOX IMVI): 90.53%
Growth percent NCI-H522 (NCI-H522): 96.81%
Growth percent MALME-3M (MALME-3M): 95.87%
Growth percent SK-OV-3 (SK-OV-3): 101.32%
Growth percent MOLT-4 (MOLT-4): 98.04%
Growth percent 786-0 (786-0): 105.25%
Growth percent SF-295 (SF-295): 90.26%
Growth percent PC-3 (PC-3): 91.59%
Growth percent OVCAR-8 (OVCAR-8): 101.62%
Growth percent SF-268 (SF-268): 109.60%
Growth percent HOP-92 (HOP-92): 90.83%
Growth percent UO-31 (UO-31): 66.06%
Growth percent HT29 (HT29): 99.73%
Growth percent TK-10 (TK-10): 108.56%
Growth percent UACC-62 (UACC-62): 89.69%
Growth percent MDA-MB-435 (MDA-MB-435): 100.64%
Growth percent HL-60(TB) (HL-60(TB)): 99.34%
Growth percent ACHN (ACHN): 86.84%
Growth percent RPMI-8226 (RPMI-8226): 100.19%
Growth percent DU-145 (DU-145): 114.27%
Growth percent NCI/ADR-RES (NCI/ADR-RES): 102.80%
